For assay [1], the system named is PGE2-induced fluid accumulation. Description: PGE2-induced enteropooling assay (fluid accumulation) in rats. The assay is classed as in vivo, Sprague-Dawley rats. The note with it: for inhibition at 2 mg/kg: Rattus norvegicus, read-out: Inhibition of secretion. As to the method:
This example illustrates the ability of BJW and its active components, magnolol, honokiol and imperatorin, to inhibit PGE2-induced fluid accumulation in rats. Sprague-Dawley rats of either sex, in groups of 8 animals, weighing between 220 and 250 g were used. A modified PGE2-induced enteropooling assay (Robert et al., Prostaglandins 11(5):809-28 (1976)) was used. The test drugs or vehicle were administrated intergastrically to rats 60 min before the administration of PGE2 (100 μg/kg, i.g.). BJW was administered (i.g. 1.6 g/kg, 2× of recommended human dosage) once daily for two days before treatment with PGE2.

Assay [2] concerns Cl−-secreting human colonic cell line, T84. The assay can be described thus: Inhibition of cAMP-activated Cl− secretion across T84 cell monolayers. In kind it is cell-based. The note with it: forskolin (10 μM), read-out: IC50, inhibition of forskolin-induced Cl− secretion.
Setting [3] is: rats, dose 2 mg/kg intergastrically 60 min before PGE2 (100 μg/kg, i.g.).

SMILES strings stand for the structures. Values after ≈ are worked out from the molar mass of the structure shown. Read-outs that look alike come from different tables or passages of the source.

With `CN(C)C(=O)C(CCN1CCC(O)(c2ccc(Cl)cc2)CC1)(c1ccccc1)c1ccccc1` [Loperamide, loperamide, reference compound], the inhibition at 2 mg/kg in assay [1] is 75%. The “Fluid accumulation ratio (FA)” value in assay [1] (setting [3]) is reported as 5.09 ± 1.40 fluid g/g intestine.
Turning to `C=CCc1ccc(O)c(-c2cc(CC=C)ccc2O)c1` [Magnolol, magnolol], in assay [1], the inhibition at 2 mg/kg was found to be 92%. For the same molecule, the “Fluid accumulation ratio (FA)” value in assay [1] (setting [3]) came out at 3.28 ± 0.32 fluid g/g intestine.
Consider `CC(C)=CCOc1c2ccoc2cc2oc(=O)ccc12` [isoimperatorin], for which, in assay [2], the IC50 was in the range of 4 to 7 µg/mL (≈ 14.8 to 25.9 µM).
For `C=CCc1ccc(O)c(-c2ccc(O)c(CC=C)c2)c1` [Honokiol, honokiol], the IC50 in assay [2] was 4 to 7 µg/mL (≈ 15 to 26.3 µM). In assay [1] (setting [3]), the inhibition at 2 mg/kg turned out to be 56% and the “Fluid accumulation ratio (FA)” value came to 7.06 ± 1.18 fluid g/g intestine.
On the same counts, the results for `CC(C)=CCOc1c2occc2cc2ccc(=O)oc12` [Imperatorin, imperatorin] are 4 to 7 µg/mL (≈ 14.8 to 25.9 µM), 39% and 8.87 ± 1.93 fluid g/g intestine.

The term inhibition denotes the drop in the measured response relative to a control, in per cent. As usually defined, the IC50 is the concentration at which inhibition is half-maximal.
